In paper PMC9715518, “Human and rat microsomal metabolites of N-tert-butoxycarbonylmethamphetamine and its urinary metabolites in rat” (Forensic Toxicology, 2021):

Columns and labels:
[1] = Microsomal metabolism test, human liver microsomes; conditions: for Detection after incubation of BocMA (LC–QToF–MS): HLM incubation of BocMA; for Share of the degraded products detected as this metabolite: HLM, first 8 min
[2] = Microsomal metabolism test, rat liver microsomes; conditions: for Detection after incubation of BocMA (LC–QToF–MS): RLM incubation of BocMA; for Share of the degraded products detected as this metabolite: RLM, first 3 min; for Incubation time at which peak intensity was highest: RLM test
[3] = Rat administration test, urinary excretion; conditions: for M1–D1 absolute amount in urine after hydrolysis / M1–D1 concentration in urine after hydrolysis / M1–D1 concentration in urine before hydrolysis / Detection in rat urine (LC–QToF–MS) / M1–D2 absolute amount in urine after hydrolysis / M1–D2 concentration in urine after hydrolysis / M1–D2 concentration in urine before hydrolysis: BocMA 20 mg/kg i.p.; for Detection in rat urine (LC–QToF–MS): urine 0–72 h, n = 3
[4] = within 3–4 days; cited from earlier work

Compound: CC(C(O)c1ccccc1)N(C)C(=O)OC(C)(C)C (single isomer, unassigned) [M1–D1, N-tert-butoxycarbonylephedrine]
- Detection after incubation of BocMA (LC–QToF–MS) [1]: produced
- Share of the degraded products detected as this metabolite [1]: 10%
- Detection after incubation of BocMA (LC–QToF–MS) [2]: detected
- Share of the degraded products detected as this metabolite [2]: 5%
- M1–D1 absolute amount in urine after hydrolysis ([3]; rat no. 1, urine 0–4 h): 0.69 ng
- M1–D1 concentration in urine after hydrolysis ([3]; rat no. 1, urine 0–4 h): 0.46 ng/mL
- M1–D1 concentration in urine before hydrolysis ([3]; rat no. 1, urine 0–4 h): 0.47 ng/mL
- M1–D1 absolute amount in urine after hydrolysis ([3]; rat no. 1, urine 0–72 h total): 57 ng
- M1–D1 absolute amount in urine after hydrolysis ([3]; rat no. 1, urine 4–8 h): 54 ng
- M1–D1 concentration in urine after hydrolysis ([3]; rat no. 1, urine 4–8 h): 54 ng/mL
- M1–D1 concentration in urine before hydrolysis ([3]; rat no. 1, urine 4–8 h): 0.51 ng/mL
- M1–D1 absolute amount in urine after hydrolysis ([3]; rat no. 2, urine 0–4 h): 10 ng
- M1–D1 concentration in urine after hydrolysis ([3]; rat no. 2, urine 0–4 h): 5.2 ng/mL
- M1–D1 concentration in urine before hydrolysis ([3]; rat no. 2, urine 0–4 h): 6.5 ng/mL
- M1–D1 absolute amount in urine after hydrolysis ([3]; rat no. 2, urine 0–72 h total): 260 ng
- M1–D1 absolute amount in urine after hydrolysis ([3]; rat no. 2, urine 4–8 h): 180 ng
- M1–D1 concentration in urine after hydrolysis ([3]; rat no. 2, urine 4–8 h): 89 ng/mL
- M1–D1 concentration in urine before hydrolysis ([3]; rat no. 2, urine 4–8 h): 3.0 ng/mL
- M1–D1 absolute amount in urine after hydrolysis ([3]; rat no. 2, urine 8–24 h): 72 ng
- M1–D1 concentration in urine after hydrolysis ([3]; rat no. 2, urine 8–24 h): 4.8 ng/mL
- M1–D1 concentration in urine before hydrolysis ([3]; rat no. 2, urine 8–24 h): 3.0 ng/mL
- M1–D1 absolute amount in urine after hydrolysis ([3]; rat no. 3, urine 0–4 h): 70 ng
- M1–D1 concentration in urine after hydrolysis ([3]; rat no. 3, urine 0–4 h): 140 ng/mL
- M1–D1 concentration in urine before hydrolysis ([3]; rat no. 3, urine 0–4 h): 50 ng/mL
- M1–D1 absolute amount in urine after hydrolysis ([3]; rat no. 3, urine 0–72 h total): 1500 ng
- M1–D1 absolute amount in urine after hydrolysis ([3]; rat no. 3, urine 4–8 h): 440 ng
- M1–D1 concentration in urine after hydrolysis ([3]; rat no. 3, urine 4–8 h): 220 ng/mL
- M1–D1 concentration in urine before hydrolysis ([3]; rat no. 3, urine 4–8 h): 3.2 ng/mL
- M1–D1 absolute amount in urine after hydrolysis ([3]; rat no. 3, urine 8–24 h): 860 ng
- M1–D1 concentration in urine after hydrolysis ([3]; rat no. 3, urine 8–24 h): 86 ng/mL
- M1–D1 absolute amount in urine after hydrolysis ([3]; rat no. 3, urine 24–48 h): 88 ng
- M1–D1 concentration in urine after hydrolysis ([3]; rat no. 3, urine 24–48 h): 11 ng/mL
- M1–D1 absolute amount in urine after hydrolysis ([3]; rat no. 3, urine 48–72 h): 6.4 ng
- M1–D1 concentration in urine after hydrolysis ([3]; rat no. 3, urine 48–72 h): 0.71 ng/mL

Compound: CNC(C)Cc1ccc(O)cc1 (centres unmarked) [4OHMA, 4-hydroxy methamphetamine, reference compound]
- Detection after incubation of BocMA (LC–QToF–MS) [1]: not detected
- Detection after incubation of BocMA (LC–QToF–MS) [2]: not detected
- Detection in rat urine (LC–QToF–MS) [3]: not detected

Compound: CC(C(O)c1ccccc1)N(C)C(=O)OC(C)(C)C (centres unmarked) [M1]
- Share of the degraded products detected as this metabolite [1]: 14%
- Incubation time at which peak intensity was highest [2]: 3 min
- Share of the degraded products detected as this metabolite [2]: 45%
- Share of the degraded products detected as this metabolite ([2]; listed as M1 (D1, 2)): ~45%
- M1 diastereomer ratio (R = M1–D1/M1–D2) ([3]; in vivo, rat urine): ≥ 1
- Detection in rat urine (LC–QToF–MS) [3]: detected in urine from all rats

Compound: CC(N)Cc1ccc(O)cc1 (centres unmarked) [4OHAP, 4-hydroxy amphetamine, reference compound]
- Detection after incubation of BocMA (LC–QToF–MS) [1]: not detected
- Detection after incubation of BocMA (LC–QToF–MS) [2]: not detected
- Detection in rat urine (LC–QToF–MS) [3]: not detected

Compound: CC1N(C)C(O)(OC(C)(C)C)OC1(O)c1ccccc1 (centres unmarked) [M6]
- Detection after incubation of BocMA (LC–QToF–MS) [1]: produced
- Detection after incubation of BocMA (LC–QToF–MS) [2]: detected
- Incubation time at which peak intensity was highest [2]: 13 min
- Detection in rat urine (LC–QToF–MS) [3]: not detected

Compound: CC(NC(=O)OC(C)(C)C)C(=O)c1ccccc1 (centres unmarked) [M4, N-tert-butoxycarbonyl-2-amino-1-phenylpropan-1-one]
- Detection after incubation of BocMA (LC–QToF–MS) [1]: produced
- Detection after incubation of BocMA (LC–QToF–MS) [2]: detected
- Incubation time at which peak intensity was highest [2]: 20 min
- Detection in rat urine (LC–QToF–MS) [3]: not detected

Compound: CC(C(O)c1ccccc1)N(C)C(=O)OC(C)(C)C (single isomer, unassigned) [M1–D2, N-tert-butoxycarbonylpseudoephedrine]
- Detection after incubation of BocMA (LC–QToF–MS) [1]: produced
- Share of the degraded products detected as this metabolite [1]: 4%
- Detection after incubation of BocMA (LC–QToF–MS) [2]: detected
- Share of the degraded products detected as this metabolite [2]: 40%
- M1–D2 absolute amount in urine after hydrolysis ([3]; average of 3 rats, urine 0–72 h total): 85 ng
- M1–D2 absolute amount in urine after hydrolysis ([3]; rat no. 1, urine 0–4 h): 7.8 ng
- M1–D2 concentration in urine after hydrolysis ([3]; rat no. 1, urine 0–4 h): 5.2 ng/mL
- M1–D2 concentration in urine before hydrolysis ([3]; rat no. 1, urine 0–4 h): 1.5 ng/mL
- M1–D2 absolute amount in urine after hydrolysis ([3]; rat no. 1, urine 0–72 h total): 43 ng
- M1–D2 absolute amount in urine after hydrolysis ([3]; rat no. 1, urine 4–8 h): 35 ng
- M1–D2 concentration in urine after hydrolysis ([3]; rat no. 1, urine 4–8 h): 35 ng/mL
- M1–D2 concentration in urine before hydrolysis ([3]; rat no. 1, urine 4–8 h): 0.67 ng/mL
- M1–D2 absolute amount in urine after hydrolysis ([3]; rat no. 2, urine 0–4 h): 24 ng
- M1–D2 concentration in urine after hydrolysis ([3]; rat no. 2, urine 0–4 h): 12 ng/mL
- M1–D2 concentration in urine before hydrolysis ([3]; rat no. 2, urine 0–4 h): 12 ng/mL
- M1–D2 absolute amount in urine after hydrolysis ([3]; rat no. 2, urine 0–72 h total): 52 ng
- M1–D2 absolute amount in urine after hydrolysis ([3]; rat no. 2, urine 4–8 h): 28 ng
- M1–D2 concentration in urine after hydrolysis ([3]; rat no. 2, urine 4–8 h): 14 ng/mL
- M1–D2 concentration in urine before hydrolysis ([3]; rat no. 2, urine 4–8 h): 1.0 ng/mL
- M1–D2 absolute amount in urine after hydrolysis ([3]; rat no. 3, urine 0–4 h): 50 ng
- M1–D2 concentration in urine after hydrolysis ([3]; rat no. 3, urine 0–4 h): 100 ng/mL
- M1–D2 concentration in urine before hydrolysis ([3]; rat no. 3, urine 0–4 h): 8.1 ng/mL
- M1–D2 absolute amount in urine after hydrolysis ([3]; rat no. 3, urine 0–72 h total): 160 ng
- M1–D2 absolute amount in urine after hydrolysis ([3]; rat no. 3, urine 4–8 h): 66 ng
- M1–D2 concentration in urine after hydrolysis ([3]; rat no. 3, urine 4–8 h): 33 ng/mL
- M1–D2 concentration in urine before hydrolysis ([3]; rat no. 3, urine 4–8 h): 1.5 ng/mL
- M1–D2 absolute amount in urine after hydrolysis ([3]; rat no. 3, urine 8–24 h): 42 ng
- M1–D2 concentration in urine after hydrolysis ([3]; rat no. 3, urine 8–24 h): 4.2 ng/mL

Compound: CC(NC(=O)OC(C)(C)C)C(O)c1ccccc1 (centres unmarked) [Boc-protected nor-ephedrine]
- Detection after incubation of BocMA (LC–QToF–MS) [1]: not detected
- Detection after incubation of BocMA (LC–QToF–MS) [2]: not detected

Compound: CC(C(=O)c1ccccc1)N(C)C(=O)OC(C)(C)C (centres unmarked) [BocMC, N-tert-butoxycarbonyl-2-(methylamino)-1-phenylpropan-1-one, reference compound]
- Detection after incubation of BocMA (LC–QToF–MS) [1]: not detected
- Detection after incubation of BocMA (LC–QToF–MS) [2]: not detected

Compound: C[C@H](NC(=O)OC(C)(C)CO)C(=O)c1ccccc1 [M5]
- Detection after incubation of BocMA (LC–QToF–MS) [1]: produced
- Detection after incubation of BocMA (LC–QToF–MS) [2]: detected
- Incubation time at which peak intensity was highest [2]: 60 min
- Urine collection interval with the highest ion peak intensity ([3]; rat urine): 4 to 8 h
- Increase of peak intensity after hydrolysis ([3]; rat urine, β-glucuronidase hydrolysis): approximately tenfold
- Detection in rat urine (LC–QToF–MS) [3]: detected in urine from all rats

Compound: CC(N)Cc1ccccc1 (centres unmarked) [AP, amphetamine]
- Detection after incubation of BocMA (LC–QToF–MS) [2]: not detected
- Detection in rat urine (LC–QToF–MS) [3]: not detected

Compound: CC(Cc1ccccc1)NC(=O)OC(C)(C)C (centres unmarked) [M2, N-tert-butoxycarbonylamphetamine]
- Detection after incubation of BocMA (LC–QToF–MS) [1]: produced
- Detection in rat urine (LC–QToF–MS) [3]: not detected

Compound: C[C@@H](Cc1ccc(O)cc1)N(C)C(=O)OC(C)(C)C [M3, N-tert-butoxycarbonyl-4-hydroxymethamphetamine]
- Detection after incubation of BocMA (LC–QToF–MS) [1]: produced
- Detection in rat urine (LC–QToF–MS) [3]: trace amount of M3 was detected only in the urine collected during 0–4 h from Rat No. 3

Compound: CC(NC(=O)OC(C)(C)COC1OC(C(=O)O)C(O)C(O)C1O)C(=O)c1ccccc1 (centres unmarked) [M9]
- Urine collection interval with the highest ion peak intensity ([3]; rat urine): 4 to 8 h
- Detection in rat urine (LC–QToF–MS) [3]: detected in all rat urine collected until 72 h

Compound: CN[C@@H](C)Cc1ccccc1 [MA, Methamphetamine]
- Share of the administered amount excreted in urine [4]: about 80%
- Detection after incubation of BocMA (LC–QToF–MS) [1]: not detected
- Detection after incubation of BocMA (LC–QToF–MS) [2]: not detected
- Detection in rat urine (LC–QToF–MS) [3]: not detected
